Data taken from patent US4622328A, “Phenyl-naphthyridines and drugs containing them, particularly anti-ulcer drugs” (priority 1984, dated 1986).
Like-named read-outs stand apart in the source and are kept apart here.

Key:
[1] = test system: gastric lesions (ulcers) provoked by nonsteroid antiinflammatory agent; experiment: Anti-ulcer activity: protection of gastric lesions provoked by a medicamentous ulcer forming agent (nonsteroid antiinflammatory agent); type: in vivo, male rats of OFA (Iffa Credo) strain; details: for ED50: Rattus norvegicus, po, read-out: AD50 (active dose 50)
Protocol: (§1) Batches of 10 to 30 male rats of OFA (Iffa Credo) strain, weighing 160-180 g, are placed on a water diet 24 hours before the oral administration of the product studied. Thirty minutes later, a medicamentous ulcer-forming agent or a necrosing agent (for example absolute ethanol) is administered by the oral route at doses which cause in the control animals a maximum gastric ulceration. The stomachs are removed, according to the test, 6 and 1 hr. respectively after the last treatment. The gastric lesions are then assessed macroscopically (dimensioning and measurement of the size of the ulcers).
(§2) They are expressed in the form of % of inhibition of the ulcers. The active dose 50 is determined graphically.

[2] = test system: gastric lesions (ulcers) provoked by ethanol; experiment: Anti-ulcer activity: protection of gastric lesions provoked by a necrosing agent (ethanol); type: in vivo, male rats of OFA (Iffa Credo) strain; details: for ED50: Rattus norvegicus, po, read-out: AD50 (active dose 50)
Protocol: as §1, §2

[3] = test system: oedema (carragenin); experiment: Anti-inflammatory activity: inhibition of carragenin oedema of the paw; type: in vivo, male rats of CD (Charles River) strain
Protocol: Batches of 6 to 12 male rats of CD (Charles River) strain, weighing 120-130 g, receive for food and drink a 9 o/oo solution of sodium chloride and 200 o/oo of glucose 18 hours before the test.
The volume of the paw is measured by plethysmography at regular intervals.
The active dose 50 and its limits are determined from the linear regression. The significance of the results is given by the Student "t" test (*, ** and *** for p<0.05, p<0.01 and […]).

[4] = test system: painful reactions (phenylbenzoquinone); experiment: Analgesic activity: inhibition of painful reactions (twists and stretches) to phenylbenzoquinone; type: in vivo, male mice of CDl (Charles River) strain; details: for DA50 (active dose): VO, linear regression
Protocol: Batches of 6 to 18 male mice of CDl (Charles River) strain, weighing 18 to 22 g, receive by the intraperitoneal route a water-alcohol 0.02% solution of phenylbenzoquinone 1 hour after treatment by the oral route. The number of painful reactions is counted from the 5th to the 10th minute.
The active dose and its limits are determined from the linear regression.

[5] = in vivo; details: fasting Sprague Dawley rat, oral route
[6] = test system: total acid secretion; experiment: Anti-secretory activity: inhibition of total acid secretion after pyloric ligature; type: in vivo, male rats of OFA (Iffa Credo) strain; details: for ED50: Rattus norvegicus, 4 h, read-out: AD50 (active dose 50); for % of inhibition of the total acid secretion: 4 hours
Protocol: A pyloric ligature is made under ether anaesthesia on batches of 5 male rats of OFA (Iffa Credo) strain weighing 180-200 g. The product studied is administered by the oral or sub-cutaneous route at the time of the ligature. The animals are sacrificed 4 hours later and the acidity of the gastric fluid collected is titered by 0.1N sodium hydroxide to pH 4 and 7.
They are expressed in percentage of inhibition of the total acid secretion. The active dose 50 is determined from the linear regression. The significance is given by the Student "t" test (* and ** for p<0.05 and p<0.01).

[7] = VO, NSAID lesions, determined graphically
[8] = VO, ethanol lesions, determined graphically
[9] = 0.06 mg.kg-1 VO, ethanol lesions
[10] = 0.25 mg.kg-1 VO, ethanol lesions

| SMILES | % of protection of lesions provoked ([1]; 4 mg.kg-1 VO, NSAID lesions) | % of protection of lesions provoked ([1]; 8 mg.kg-1 VO, NSAID lesions) | % of protection of lesions provoked ([1]; 16 mg.kg-1 VO, NSAID lesions) | % of protection of lesions provoked ([1]; 32 mg.kg-1 VO, NSAID lesions) | ED50 [1, 7] | % of protection of lesions provoked ([2]; 1 mg.kg-1 VO, ethanol lesions) | % of protection of lesions provoked ([2]; 4 mg.kg-1 VO, ethanol lesions) | ED50 [2, 8] | % of inhibition of the oedema ([3]; 4 mg.kg-1 VO) | % of inhibition of the oedema ([3]; 16 mg.kg-1 VO) | % of inhibition of the oedema ([3]; 64 mg.kg-1 VO) | % of inhibition of the oedema ([3]; 128 mg.kg-1 VO) | % of inhibition of the oedema ([3]; 256 mg.kg-1 VO) | % of inhibition of the painful reactions ([4]; 16 mg.kg-1 VO) | % of inhibition of the painful reactions ([4]; 32 mg.kg-1 VO) | % of inhibition of the painful reactions ([4]; 64 mg.kg-1 VO) | % of inhibition of the painful reactions ([4]; 128 mg.kg-1 VO) | % of inhibition of the painful reactions ([4]; 256 mg.kg-1 VO) | DA50 (active dose) [4] | LD50 [5] | other results |
| --- | --- | --- | --- | --- | --- | --- | --- | --- | --- | --- | --- | --- | --- | --- | --- | --- | --- | --- | --- | --- | --- |
| O=c1ccc2cccnc2n1-c1cccc(C(F)(F)F)c1 [Example 4, 1-(3-trifluoromethylphenyl)1,2-dihydro 2-oxo 1,8-naphthyridine] | 11% | 40% | 68% | 81% | 12 mg/kg | 6% | 87% | 2.2 mg/kg | 14% | 21% | 80% | 70% | 83% | 6% | 39% | 37% | 79% | 93% | 62.0 mg · kg - 1 | > 256 mg/kg | % of protection of lesions provoked ([2]; 2 mg.kg-1 VO, ethanol lesions): 52% |
| Cc1cc2cccnc2n(-c2ccccc2)c1=O [Example 11, 1-phenyl 1,2-dihydro 2-oxo 3-methyl 1,8-naphthyridine] |  |  |  |  |  | 94% | 98% |  |  |  |  |  |  |  |  |  |  |  |  |  | % of protection of lesions provoked ([1]; 0.25 mg.kg-1 VO, NSAID lesions): 1%; % of protection of lesions provoked ([1]; 0.5 mg.kg-1 VO, NSAID lesions): 34%; % of protection of lesions provoked ([1]; 1 mg.kg-1 VO, NSAID lesions): 75%; % of protection of lesions provoked ([1]; 2 mg.kg-1 VO, NSAID lesions): 100%; ED50 [1]: 0.67 mg/kg; % of protection of lesions provoked [2, 9]: 86%; % of protection of lesions provoked [2, 10]: 95%; ED50 [2]: < 0.06 mg/kg; ED50 ([6]; sc): 0.065 mg/kg; % of inhibition of the total acid secretion ([6]; administered SC, 0.03 mg.kg-1): 37%; % of inhibition of the total acid secretion ([6]; administered SC, 0.06 mg.kg-1): 46%; % of inhibition of the total acid secretion ([6]; administered SC, 0.125 mg.kg-1): 63%; % of inhibition of the total acid secretion ([6]; administered SC, 0.25 mg.kg-1): 76%; % of inhibition of the total acid secretion ([6]; administered SC, 0.5 mg.kg-1): 81% |
| Cc1cc2cccnc2n(-c2cccc(C(F)(F)F)c2)c1=O [Examples 3 & 10, 1-(3-trifluoromethylphenyl)1,2-dihydro 2-oxo 3-methyl 1,8-naphthyridine] | 22% | 62% | 87% | 95% | 6.5 mg/kg | 79% |  | 0.37 mg/kg | 10% | 31% | 47% | 61% | 64% | 30% | 26% | 57% | 58% | 73% | 69.4 mg · kg - 1 | > 256 mg/kg | % of protection of lesions provoked ([1]; 2 mg.kg-1 VO, NSAID lesions): 15%; % of protection of lesions provoked [2, 9]: 0%; % of protection of lesions provoked ([2]; 0.125 mg.kg-1 VO, ethanol lesions): 17%; % of protection of lesions provoked [2, 10]: 42%; % of protection of lesions provoked ([2]; 0.5 mg.kg-1 VO, ethanol lesions): 64%; ED50 ([6]; administered SC, linear regression): 0.72 mg/kg; ED50 ([6]; po, administered VO, linear regression): 0.7 mg/kg; % of inhibition of the total acid secretion ([6]; administered SC, 0.25 mg.kg-1): 4%; % of inhibition of the total acid secretion ([6]; administered SC, 0.5 mg.kg-1): 38%; % of inhibition of the total acid secretion ([6]; administered SC, 1 mg.kg-1): 65%; % of inhibition of the total acid secretion ([6]; administered SC, 2 mg.kg-1): 90%; % of inhibition of the total acid secretion ([6]; administered VO, 0.125 mg.kg-1): 2%; % of inhibition of the total acid secretion ([6]; administered VO, 0.25 mg.kg-1): 18%; % of inhibition of the total acid secretion ([6]; administered VO, 0.5 mg.kg-1): 59%; % of inhibition of the total acid secretion ([6]; administered VO, 1 mg.kg-1): 56%; % of inhibition of the total acid secretion ([6]; administered VO, 2 mg.kg-1): 75%; ED50 ([3]; Rattus norvegicus, po, VO, linear regression, read-out: AD50 (active dose 50)): 73.3 mg/kg; % of inhibition of the painful reactions ([4]; 8 mg.kg-1 VO): 6% |
